We go through 11 compounds from patent publication US8563542B2 (Cyclacel Limited, priority 2007, dated 2013).

Sequence of PLK1 (P53350 whole entry): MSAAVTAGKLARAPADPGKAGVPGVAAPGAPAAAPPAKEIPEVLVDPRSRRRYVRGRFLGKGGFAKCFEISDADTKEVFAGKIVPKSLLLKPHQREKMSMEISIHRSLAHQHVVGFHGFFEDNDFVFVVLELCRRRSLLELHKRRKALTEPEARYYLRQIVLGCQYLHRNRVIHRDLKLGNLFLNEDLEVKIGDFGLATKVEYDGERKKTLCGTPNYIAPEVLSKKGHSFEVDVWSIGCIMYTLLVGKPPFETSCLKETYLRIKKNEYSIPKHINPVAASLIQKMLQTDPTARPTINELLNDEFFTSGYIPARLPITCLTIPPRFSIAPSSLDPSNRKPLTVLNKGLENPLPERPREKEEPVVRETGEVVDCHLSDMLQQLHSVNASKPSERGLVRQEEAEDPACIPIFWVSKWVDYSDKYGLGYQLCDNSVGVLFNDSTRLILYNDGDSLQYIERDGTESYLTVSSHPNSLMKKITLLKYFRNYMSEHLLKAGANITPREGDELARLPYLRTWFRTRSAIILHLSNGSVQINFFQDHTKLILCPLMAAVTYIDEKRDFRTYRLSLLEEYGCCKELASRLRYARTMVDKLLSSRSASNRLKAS

One assay has as its target PLK1 (Homo sapiens, UniProt P53350). Kind of assay: PLK1 protein kinase assay (CDC25C phosphorylation, [γ-32P]-ATP). The class given is biochemical. The following applies: Table 1; read-out: PLK1 IC50.
With `COc1cc(C(=O)NC2CCN(C)CC2)ccc1Nc1ncc2c(n1)N(C1CCOCC1)CCC(=O)N2C` [compound 26, 3-Methoxy-4-[5-methyl-6-oxo-9-(tetrahydro-pyran-4-yl)-6,7,8,9-tetrahydro-5H-pyrimido[4,5-b][1,4]diazepin-2-ylamino]-N-(1-methyl-piperidin-4-yl)-benzamide], the IC50 is less than 1000 nM.
Same read-out and setting: the figure for `O=C1CCN(C2CCCCC2)c2nc(Nc3ccc(O)cc3)ncc2N1` [compound 10, 9-Cyclohexyl-2-(4-hydroxy-phenylamino)-5,7,8,9-tetrahydro-pyrimido[4,5-b][1,4]diazepin-6-one] is less than 10000 nM.

The same assay, now with this note: Table 2, PLK1 IC50; class symbols; read-out: PLK1 IC50.
Consider `COc1cc(C(=O)Nc2ccccc2)ccc1Nc1ncc2c(n1)N(C1CCCC1)CCC(=O)N2C` [compound 95, 4-(9-Cyclopentyl-5-methyl-6-oxo-6,7,8,9-tetrahydro-5H-pyrimido[4,5-b][1,4]diazepin-2-ylamino)-3-methoxy-N-phenyl-benzamide], for which the IC50 was less than 10000 nM.
On to `CN1C(=O)CCN(C2CCCC2)c2nc(NCc3ccsc3)ncc21` [compound 106, 9-Cyclopentyl-5-methyl-2-[(thiophen-3-ylmethyl)-amino]-5,7,8,9-tetrahydro-pyrimido[4,5-b][1,4]diazepin-6-one], for which the IC50 is less than 10000 nM.
Turning to `CCN(CC)CCNC(=O)c1ccc(Nc2ncc3c(n2)N(C2CCCC2)CCC(=O)N3C)c(OC)c1` [compound 148, 4-(9-Cyclopentyl-5-methyl-6-oxo-6,7,8,9-tetrahydro-5H-pyrimido[4,5-b][1,4]diazepin-2-ylamino)-N-(2-diethylamino-ethyl)-3-methoxy-benzamide], the IC50 is less than 100 nM.
Same read-out and setting: the value for `COc1cc(C(=O)NC2CCCN(C)C2)ccc1Nc1ncc2c(n1)N(C1CCCC1)CCC(=O)N2C` (centres unmarked) [compound 163, 4-(9-Cyclopentyl-5-methyl-6-oxo-6,7,8,9-tetrahydro-5H-pyrimido[4,5-b][1,4]diazepin-2-ylamino)-3-methoxy-N-(1-methyl-piperidin-3-yl)-benzamide] was less than 100 nM.
The same measure, in the same setting: the figure for `COc1cc(C(=O)NC2CCN(C)CC2)ccc1Nc1ncc2c(n1)N(CCO)CCC(=O)N2C` [compound 208, 4-[9-(2-Hydroxy-ethyl)-5-methyl-6-oxo-6,7,8,9-tetrahydro-5H-pyrimido[4,5-b][1,4]diazepin-2-ylamino]-3-methoxy-N-(1-methyl-piperidin-4-yl)-benzamide] is less than 1000 nM.
The same measure, in the same setting: the value for `CN1CCC(NC(=O)c2ccc(Nc3ncc4c(n3)N(C3CCCC3)CC3(CC3)C(=O)N4C)c(O)c2)CC1` [compound 274, 4-(9-Cyclopentyl-5-methyl-6-oxo-6,7,8,9-tetrahydro-5H-spiro[pyrimido[4,5-b][1,4]diazepin-3,1′-cyclopropane]-2-ylamino)-3-hydroxy-N-(1-methyl-piperidin-4-yl)-benzamide] was less than 1000 nM; that for `CCOc1cc(C(=O)NC2CCN(C)CC2)ccc1Nc1ncc2c(n1)N(C1CCCC1)CCC(=O)N2C` [compound 59, 4-(9-Cyclopentyl-5-methyl-6-oxo-6,7,8,9-tetrahydro-5H-pyrimido[4,5-b][1,4]diazepin-2-ylamino)-3-ethoxy-N-(1-methyl-piperidin-4-yl)-benzamide] was less than 1000 nM.
Regarding `COc1cc(C(=O)NCc2cccn2C)ccc1Nc1ncc2c(n1)N(CC1CC1)CCC(=O)N2C` [compound 249, 4-(9-Cyclopropylmethyl-5-methyl-6-oxo-6,7,8,9-tetrahydro-5H-pyrimido[4,5-b][1,4]diazepin-2-ylamino)-3-methoxy-N-(1-methyl-1H-pyrrol-2-ylmethyl)-benzamide], the IC50 was less than 1000 nM.

The assay is the same for the next values; noted with them: Table 3; read-out: PLK1 IC50.
In the case of `COc1cc(C(=O)NN2CCN(CCO)CC2)ccc1Nc1ncc2c(n1)N(C1CCCC1)CC1(CC1)C(=O)N2C` [Compound 375, 4-(9′-Cyclopentyl-5′-methyl-6′-oxo-5′,6′,8′,9′-tetrahydrospiro[cyclopropane-1,7′-pyrimido[4,5-b][1,4]diazepine]-2′-ylamino)-N-(4-(2-hydroxyethyl)piperazin-1-yl)-3-methoxybenzamide], the IC50 is less than 100 nM.
